Laboratory results published in patent US20250262139A1, “POLYPEPTIDES AND METHODS FOR IMPROVING SKIN CONDITIONS” (INTERK PEPTIDE THERAPEUTICS LIMITED, priority 2020, published 2025).
Where no end group is shown, it is not given here.

Columns and labels:
Skh: hr1 hairless mice = test: CPD (thymine dimer) immunohistochemistry in UV-irradiated mouse skin; assay type: in vivo; details: topical immediately after UVR; IK34720 20, 100 or 200 μg, Calcitriol 11.4 pmol/cm2; 3 hours post-UVR; vs vehicle
Procedure: Female Skh: hr1 hairless mice were exposed to solar simulated UV-irradiation as described above at Example 4. Immediately after irradiation mice were treated topically on the dorsal surface also as described in Example 4. Subsequently, skin was fixed at 3 hours post-UVR, and subjected to immuno-histochemical staining using the antibody directed against thymine dimers (CPD) described above at 10 μg/ml. […] In FIG. 9, dark staining in nuclei indicates the presence of thymine dimers (CPD), and the % area stained is presented. Immunohistology was quantified as per Example 4.

[1] = target: T1, Human rheumatoid synovial fibroblast MMP-1 (Homo sapiens, UniProt P03956); test: MMP-1 activity, fluorogenic substrate assay; assay type: biochemical; details: 5, 10, 800 and 1000 μM; 8 nM activated enzyme
T1 construct: endogenous in cells; host or cells: human rheumatoid synovial fibroblasts
T1 sequence (P03956 100-469): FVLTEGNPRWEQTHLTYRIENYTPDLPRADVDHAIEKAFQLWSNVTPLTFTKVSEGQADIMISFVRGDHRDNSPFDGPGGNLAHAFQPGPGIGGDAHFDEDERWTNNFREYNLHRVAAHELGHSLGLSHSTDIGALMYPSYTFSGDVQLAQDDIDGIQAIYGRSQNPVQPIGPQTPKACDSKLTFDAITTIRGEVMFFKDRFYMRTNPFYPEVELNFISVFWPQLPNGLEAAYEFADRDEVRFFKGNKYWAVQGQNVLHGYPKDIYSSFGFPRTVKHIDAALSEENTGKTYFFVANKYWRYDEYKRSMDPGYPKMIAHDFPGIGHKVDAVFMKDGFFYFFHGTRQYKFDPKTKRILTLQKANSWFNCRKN
Procedure: Human rheumatoid synovial fibroblast MMP-1 proenzyme, activated with APMA for 60 minutes at 37° C., was used as an active enzyme. The polypeptide IK34720 (SEQ ID NO: 3) at a concentration of 5 μM. 10 μM 800 μM and 1000 μM was pre-incubated with 8 nM activated enzyme in modified MOPS buffer pH 7.2 for 60 minutes at 37° C. The reaction was initiated by addition of […] Mca-Pro-Leu-Gly-Leu-Dap-Ala-Arg followed by a 2 hour incubation period. Determination of the amount of Mca-Pro-Leu-Gly formed was read spectrofluorimetrically at 340 nm/400 nm.

human skin explants = test: CPD formation in UV-irradiated human skin explants; assay type: cell-based
Procedure: Human skin removed at elective surgery was cleaned, dissected and cut into pieces of approx. 5 mm×5 mm. Each piece was placed in a well of a 96 well plate, with individual plates prepared to assess the effects 3 hrs post treatment. All samples were performed in triplicate for each treatment. Skin was subjected to UV-radiation from solar-simulated UV source for 1.5 h (UVR), or non-irradiation (SHAM). Given that human skin is thicker than mouse skin, human skin explants were exposed to a radiation dose three times higher than that used for mouse skin, i.e., 20 J/cm2 versus 7 J/cm^2, respectively, and the output spectrum of the laboratory solar simulator has previously been reported (Rybchyn M S et al, J Invest Dermatol. 2018 May; 138 (5): 1146-1156) and treated immediately after with a vehicle control, Calcitriol (1 nM) or the polypeptide IK34720 (SEQ ID NO: 3) at concentrations of 50 μM, 250 μM or 500 μM.
Samples harvested at 3 hrs were fixed, section, stained and quantified as described in Example 5.

MMP1 = MMP1 immunohistochemical staining in UV-irradiated human skin explants; assay type: cell-based
Procedure: Human skin (2×human explant tissues) removed at elective surgery was cleaned, dissected and cut into pieces of approx. 5 mm×5 mm. Each piece was placed in a well of a 96 well plate, with individual plates prepared to assess the effects 3 hrs post treatment. Skin was subjected to UV-radiation from solar-simulated UV source for 1.5 h (UVR), or non-irradiation (SHAM), and treated immediately after with a vehicle control, Calcitriol (1 nM) or the polypeptide IK34720 (SEQ ID NO: 3) at concentrations of 50 μM, 250 μM or 500 μM. In FIG. 17, IK50, IK250 and IK500 as μM concentrations refers to 15 μg, 75 μg and 150 μg of IK34720 per 120 μL culture medium/explant, respectively.
Samples harvested at 3 hrs were fixed, sectioned, immunohistochemically stained for MMP1 and quantified for MMP1 expression, by expressing epidermal area stained for MMP1 as a function of total epidermal area examined.

dermal fibroblasts = test: TBARS lipid peroxidation assay, UV-irradiated dermal fibroblasts; assay type: cell-based; details: IK-3 at the highest concentration (5 μM); 1,25D
Procedure: The ability of the polypeptide RSKAKNPLYRRRRRRRRR to alter UV-induced oxidative damage of cell-derived lipids was examined using the TBARS thiobarbituric acid-reactive substances (TBARS) lipid peroxidation assay.
After irradiation or sham-irradiation of dermal fibroblasts, supernatants (900 μL) were collected. In brief, 90 μL of butylated hydroxytoluene (2% w/w in ethanol) was added and samples kept frozen (−20° C.) until the TBARS assay. Petri dishes were washed twice with 1 mL of HBSS, cells scraped in 600 μL of water and 60 μL of 0.5% aqueous Triton X100 added to this solution, for protein determination carried out by the Lowry method (Lowry O H et al, J. Biol. Chem., 1951, 193:265-275). TBARS were fluorometrically assayed as described (Morlière P et al, Biochim. Biophys. Acta, 1991, 1084:261-268). Briefly, thawing samples were heated in the presence of thiobarbituric acid in acidic conditions, and TBARS extracted with 1-butanol and fluorometrically quantified (λexc=515 nm and Aem=550 nm). Tetraethoxypropane, which quantitatively yields the malondialdehyde-thiobarbituric acid adduct in the assay conditions, was used for calibration. TBARS values, expressed in malondialdehyde (MDA) equivalents, were normalized to the cell protein for each Petri dish. Each TBARS determination was performed in triplicate (e.g., with three Petri dishes per data point).

Smad4 = Smad4 expression in UV treated cells (data not shown); assay type: cell-based
[2] = 3 hrs post irradiation/treatment, Calcitriol 1 nM, IK34720 50, 250 or 500 μM

RSKAKNPLYRRRRRRRRR (not fully specified (some residues)) [IK34720]
CPD formation in the skin (% area stained) (Skh: hr1 hairless mice): inhibits CPD formation | MMP-1 activity [1]: inhibits MMP-1 activation in a dose dependent manner | percentage of CPD positive cells (human skin explants; 500 μM, 3 hrs post irradiation, two individuals): statistically significantly reduced | cells stained for CPDs (human skin explants; [2]): fewer stained cells | percentage of MMP1 positive cells (MMP1; 500 μM, 3 hrs post irradiation): statistically significantly reduced | cells staining for MMP-1 (MMP1; [2]): fewer stained cells | significant difference in TRS (TBA reactive substances) between Sham and UV irradiation (dermal fibroblasts): not seen | Smad4 expression in UV treated cells (Smad4): restored Smad4 expression
